{
  "source": "patent US20240226035A1",
  "about": "“Precision Medicine Approach to Treating Parkinson's Disease with a Monoamine Oxidase Inhibitor, an Antioxidant, or Both” (UNIVERSITY OF NORTH TEXAS HEALTH SCIENCE CENTER AT FORT …, priority 2021, published 2024)",
  "origin": "cited, not measured here",
  "settings": "DATATOP trial",
  "key": {"[1]": {"settings": "deprenyl 10 mg/day, PD patients"}},
  "data": [
    {"smiles": "C#CCN(C)[C@H](C)Cc1ccccc1", "note": "[deprenyl]", "values": [
      {"measurement": "effect on reducing PD symptoms", "setting": "deprenyl 10 mg/d, after 14 months, trial discontinued and became open-label", "value": "positive effects"},
      {"measurement": "postponing levodopa-related adverse events or extending life", "setting": "[1]", "value": "no benefit"},
      {"measurement": "time until disability that warranted initiation of levodopa therapy", "setting": "[1]", "value": "delayed time until disability that warranted initiation of levodopa therapy"}
    ]}
  ]
}
